Consider 6 compounds from patent US20040019018A1, “Rigid pyrrolidone modulators of pkc” (priority 2003, published 2004).

For one assay, the target named is T1, δ-PKC (Homo sapiens, UniProt Q05655).
T1 construct: made in house; host or cells: Sf9 cells (baculovirus)
Description: [3H]PDBu displacement from recombinant PKC isozyme (baculovirus). The note with it: [3H]PDBu competition. It counts as binding. On the procedure: (§1) These procedures are described below. […] (See the key that follows)
(§2) Analysis of [20-^3H]phorbol 12,13-dibutyrate binding to PKC. […] [^3H]PDBu (20.0 Ci/mmol) was obtained from New England Nuclear. Phosphatidylserine and bovine […] were obtained from Sigma Chemical Co. Binding was determined in an incubation volume of 250 μl, containing [^3H]PDBu, PKC, 0.05 M Tris-Cl, pH 7.4, 100 μg/ml phosphatidylserine, various concentrations of the ligand being assayed for competition of [^3H]PDBu binding, and bovine […] at 1 mg/ml. In the case of the classical PKCs (α, β, […]) CaCl2 was included at a concentration of 0.1 mM. Liposomes of phosphatidylserine were prepared as follows. The phosphatidylserine solutions were dried down from CHCl3 under a stream of N2. After addition of 0.05 M Tris-Cl, pH 7.4, liposomes were prepared by sonication for 30 sec with the microtip probe of Sonifier Cell Disrupter (Heat Systems-Ultrasonics). [^3H]PDBu was used at a concentration twice the Kd previously determined for the specific receptor. Ligands were assayed over a concentration range of 3 orders of magnitude. Ligands were diluted in 0.05 M Tris-Cl, pH 7.4 containing 1 mg/ml bovine g-globulin. If the compounds were not soluble at the highest concentration used, they were dissolved in organic solvent (CHCl3 or ethanol) and mixed with the phosphatidylserine dissolved in CHCl3. The solvent was removed under a stream of N2.
(§3) Mixed liposomes were then prepared, as described for the preparation of the liposomes of phosphatidylserine alone, by the addition of 0.05 M Tris-Cl, pH 7.4, and sonication for 30 sec with the microtip probe of a Sonifier Cell Disrupter (Heat Systems-Ultrasonics). Incubation was for 5 min at 37° C. […] After vigorous mixing, the samples were incubated for 15 min to allow precipitation of the receptor. The precipitate was recovered by centrifugation at 12,000 rpm in a Beckman microcentrifuge at 4° C. […] This value provided a measure of the concentration of unbound [^3H]PDBu. The remainder of the supernatant was removed by aspiration and blotting with absorbent tissue. The tip of the centrifuge tube was cut off and the radioactivity in the pellet measured to determine total bound [^3H]PDBu. Non-specific binding of [^3H]PDBu was measured in the presence of 30 μM non-radioactive PDBu and used to determine an apparent partition coefficient for [^3H]PDBu under these assay conditions.
(§4) Specific binding represents the difference between total binding and the non-specific binding, where the latter value was calculated from the partition coefficient and the measured free [^3H]PDBu concentration in each tube. In each experiment, triplicate determinations were performed at each concentration of competing ligand. A half-maximal inhibitory concentration of inhibitor and a Ki for the inhibitor was determined by computer fit of the data points to the equation B(I)/B(O)=(L+Kd)/(Kd+(Kd/Ki)(I)+L), where B(I) represents the amount of [^3H]PDBu specifically bound in the presence of inhibitor, B(O) represents the amount specifically bound in the absence of inhibitor, L is the concentration of [^3H]PDBu, Kd is the measured dissociation constant for [^3H]PDBu, Ki is the dissociation constant for the inhibitor, and I is the concentration of inhibitor.
(§5) Expression of PKC isozymes in baculovirus. […] After 60-72 hr, the cells were centrifuged (1000 rpm, 10 min) and washed twice with phosphate buffered saline, and the pelleted cells kept at −70° C. until used.
(§6) For purification of the individual PKC isozymes, the cell pellet was resuspended in […] of a homogenization buffer of the following composition; 20 mM Tris-Cl, pH 8.0, 5 mM EDTA, 5 mM EGTA, 0.3% (v/v) 2-mercaptoethanol, 10 mM benzamidine, 50 μg/ml phenylmethylsulfonyl fluoride, and 250 μg/ml leupeptin. The cells were disrupted in a Potter-Elvehjem homogenizer at 4° C., and the homogenate is centrifuged at 100,000×g for 60 min.

The next assay has as its target T2, β-PKC (Homo sapiens, UniProt P05771).
T2 construct: made in house; host or cells: Sf9 cells (baculovirus)
The description is as above. Type of assay: binding. As to conditions: [3H]PDBu competition. Here is the method: as §1, §2, §3, §4, §5, §6

T2 sequence (P05771 whole entry): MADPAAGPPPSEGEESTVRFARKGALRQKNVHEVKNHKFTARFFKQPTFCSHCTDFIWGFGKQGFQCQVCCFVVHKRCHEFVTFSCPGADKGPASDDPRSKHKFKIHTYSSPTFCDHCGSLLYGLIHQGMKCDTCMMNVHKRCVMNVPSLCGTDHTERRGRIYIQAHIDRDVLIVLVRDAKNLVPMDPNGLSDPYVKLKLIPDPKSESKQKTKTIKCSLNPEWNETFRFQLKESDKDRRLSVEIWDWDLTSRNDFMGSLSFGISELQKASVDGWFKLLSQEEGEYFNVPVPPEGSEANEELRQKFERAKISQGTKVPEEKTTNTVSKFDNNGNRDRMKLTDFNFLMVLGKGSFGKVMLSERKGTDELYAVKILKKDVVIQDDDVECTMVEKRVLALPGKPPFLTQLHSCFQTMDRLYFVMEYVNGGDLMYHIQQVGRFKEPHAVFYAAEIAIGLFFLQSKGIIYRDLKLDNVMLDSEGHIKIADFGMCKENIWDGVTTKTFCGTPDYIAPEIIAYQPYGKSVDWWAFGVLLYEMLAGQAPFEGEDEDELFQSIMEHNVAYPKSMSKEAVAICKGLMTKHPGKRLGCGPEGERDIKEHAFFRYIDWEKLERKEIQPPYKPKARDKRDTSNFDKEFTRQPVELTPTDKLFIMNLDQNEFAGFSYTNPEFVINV
T1 sequence (Q05655 whole entry): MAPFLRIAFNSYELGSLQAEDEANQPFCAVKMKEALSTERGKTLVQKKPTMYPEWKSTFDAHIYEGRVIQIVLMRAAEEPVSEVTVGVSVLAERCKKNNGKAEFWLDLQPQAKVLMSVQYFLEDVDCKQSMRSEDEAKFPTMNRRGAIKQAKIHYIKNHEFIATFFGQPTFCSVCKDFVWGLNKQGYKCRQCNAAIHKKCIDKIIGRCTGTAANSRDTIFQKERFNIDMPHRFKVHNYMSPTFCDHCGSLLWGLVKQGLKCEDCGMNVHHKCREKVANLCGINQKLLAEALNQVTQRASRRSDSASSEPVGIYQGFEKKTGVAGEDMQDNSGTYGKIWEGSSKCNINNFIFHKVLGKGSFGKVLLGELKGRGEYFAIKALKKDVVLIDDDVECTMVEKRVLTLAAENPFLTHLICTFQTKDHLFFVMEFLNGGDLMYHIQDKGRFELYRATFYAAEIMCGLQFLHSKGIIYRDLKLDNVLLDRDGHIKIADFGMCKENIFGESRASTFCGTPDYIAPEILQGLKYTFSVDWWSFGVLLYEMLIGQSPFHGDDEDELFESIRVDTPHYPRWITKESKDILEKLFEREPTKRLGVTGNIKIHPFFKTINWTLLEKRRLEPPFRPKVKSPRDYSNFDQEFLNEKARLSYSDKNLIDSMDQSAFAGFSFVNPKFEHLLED

On to `CCCCCCCCC#Cc1ccc2c(c1)C(C)(C(C)C)C1C(=O)NC(CO)C21` [Compound 1, (3S, 8R, 9S, 10S)-6-(dec-1′-ynyl)-3-hydroxymethyl-8-isopropyl-8-methyl-3,3a,8,8a-tetrahydro-2H-2-aza-cyclopenta[a]inden-1-one], for which the Ki at δ-PKC is 1630 ± 391 nM.

Take `CCCCCCCCCCCC(=O)Oc1ccc2c(c1)[C@](C)(C(C)C)[C@H]1C(=O)N[C@H](CO)[C@@H]21` [Compound 2, (3S, 8R, 9S, 10S)-6-dodecanoyloxyl-3-hydroxymethyl-8-isopropyl-8-methyl-3,3a,8,8a-tetrahydro-2H -2-aza-cyclopenta[a]inden-1-one]: the Ki at β-PKC turned out to be 593 ± 178 nM; on δ-PKC, 1370 ± 329 nM.

In the case of `CCCCCCCCCCCC(=O)Oc1ccc2c(c1)[C@@](C)(C(C)C)[C@H]1C(=O)N[C@H](CO)[C@@H]21` [Compound 3, (3S, 8S, 9S, 10S)-6-dodecanoyloxyl-3-hydroxymethyl-8-isopropyl-8-methyl-3,3a,8,8a-tetrahydro-2H -2-aza-cyclopenta[a]inden-1-one], the Ki at β-PKC is 1050 ± 284 nM; on δ-PKC, 150 ± 64 nM.

In the case of `CCCCCCCCCCCC(=O)Oc1cc2c(cc1C(C)=O)[C@@H]1[C@@H](CO)NC(=O)[C@@H]1[C@]2(C)C(C)C` [Compound 4, (3S, 8S, 9S, 10S)-5-acetyl-6-dodecanoyloxyl-3-hydroxymethyl-8-isopropyl-8-methyl-3,3a,8,8a-tetrahydro-2H -2-aza-cyclopenta[a]inden-1-one], the Ki on β-PKC worked out at 8490 ± 3310 nM; at δ-PKC it was 4370 ± 214 nM.

As for `CCCCCCCCCCCC(=O)Oc1cc2c(cc1Br)[C@@H]1[C@@H](CO)NC(=O)[C@@H]1[C@]2(C)C(C)C` [Compound 5, (3S, 8S, 9S, 10S)-5-bromo-6-dodecanoyloxyl-3-hydroxymethyl-8-isopropyl-8-methyl-3,3a,8,8a-tetrahydro-2H -2-aza-cyclopenta[a]inden-1-one], the inhibitory constant (Ki) on β-PKC stood at 1610 ± 257 nM; on δ-PKC, 623 ± 318 nM.

For the compound `CCCCCCCCCCCC(=O)Oc1cc2c(cc1C(C)=O)[C@@H]1[C@@H](CO)NC(=O)[C@@H]1[C@@]2(C)C(C)C` [Compound 11, (3S, 8R, 9S, 10S)-5-acetyl-6-dodecanoyloxyl-3-hydroxymethyl-8-isopropyl-8-methyl-3,3a,8,8a-tetrahydro-2H -2-aza-cyclopenta[a]inden-1-one], the inhibition constant Ki on β-PKC is more than 10000 nM.

Broadly, the Ki is a measure of affinity in units of concentration, obtained from inhibition or displacement.
